Experimental findings from patent US20220071880A1, “METHODS FOR TREATING CUTANEOUS AGING” (Applied Therapeutics, Inc., priority 2019, published 2022) are described below.

Entries after “also recorded” stand apart in the source; their conditions may differ.

What all share (type): cell-based
Assay [1] relates to Cultured human skin cells (keratinocytes). Nature of the assay: Cytosolic reactive oxygen species by dihydroethidium (DHE) staining in H2O2-exposed cultured keratinocytes. From the text: FIGS. 1A and 1B are fluorescence images of cultured human skin (keratinocytes) that were exposed to H2O2 to cause oxidative stress. The cells were analyzied for cytosolic reactive oxygen species by staining with dihydroethidium (DHE). FIG. 1A depicts the skin cell damage in the presence of H2O2 as assessed by DHE staining, and the presence of cytosolic reactive oxygen species is shown by fluorescence.
(§1) Cultured human skin cells (keratinocytes) were exposed to H2O2, which causes oxidative damage to simulate the aging process, in the presence of Compound A (at 0.18 nM concentration) or vehicle control. The cultured cells were then assessed for cytosolic reactive oxygen species via Dihydroethidium (DHE) staining (FIG. 1A and FIG. 1B) and for mitochondrial stress via Mitosox™ (a fluorgenic dye targeted to mitochondria in live cells and readily oxidized by superoxide to produce fluorescence, ThermoFisher Scientific) staining (FIG. 2A and FIG. 2B).

The test system is the same in assay [2]. Put plainly: Mitochondrial oxidative stress by Mitosox staining in H2O2-exposed cultured keratinocytes. On the procedure:
FIGS. 2A and 2B are fluorescence images of cultured human skin (keratinocytes) that were exposed to H2O2 to cause oxidative stress. The cells were analyzied for mitochondrial stress by staining with Mitosox. FIG. 2A depicts the skin cell damage in the presence of H2O2 as assessed by Mitosox staining.
as §1

Assay [3] deals with cultured human keritinocytes. Nature of the assay: Senescence-associated beta-galactosidase (SA-βgal) expression in H2O2-exposed cultured keratinocytes, cytochemical approach. The following applies: human keratinocytes exposed to H2O2; Compound A at 0.18 nM vs vehicle control. On the procedure: Senescence-associated beta-galactosidase (SA-βgal) is a well-known biomarker of senescent cells in culture and in vivo. Debacq-Chainiaux et al., Nature Protocols 4, 1798-1806 (2009). In additional studies the cultured human keritinocytes that were exposed to H2O2 in the presence of Compound A (at 0.18 nM concentration) or vehicle control were analyzed for expression of SA-βgal using a cytochemical approach.

[4] abbreviates: same cultured human keratinocyte system, concentration not given.
The mark [5] stands for this setting: human keratinocytes exposed to H2O2, Compound A at 0.18 nM vs vehicle control.

As for `O=C(O)Cc1nn(Cc2nc3cc(C(F)(F)F)ccc3s2)c(=O)c2cscc12` [Compound B], the “H2O2-induced cytosolic reactive oxygen species formation” value in assay [1] (setting [4]) is listed as “inhibited H2O2-induced cytosolic reactive oxygen species formation”. Moreover, in assay [2] (setting [4]), the “H2O2-induced mitochondrial oxidative stress” value was “inhibited H2O2-induced cytosolic reactive oxygen species formation and mitochondrial oxidative stress”.
As for `O=C(O)Cc1nn(Cc2nc3cc(C(F)(F)F)ccc3s2)c(=O)c2nccnc12` [Compound A], the “H2O2-induced SA-βgal expression” value in assay [3] was “inhibited H2O2-induced SA-βgal”. Besides, the “H2O2-induced cytosolic reactive oxygen species formation (DHE fluorescence)” value in assay [1] (setting [5]) is “attenuated DHE fluorescence; also recorded: attenuated H2O2-induced cytosolic reactive oxygen species formation”. Further, in assay [2] (setting [5]), the “H2O2-induced mitochondrial oxidative stress (Mitosox fluorescence)” value is reported as “reduced Mitisox fluorescence; also recorded: reduced mitochondrial oxidative stress”.
